Experimental data reported in ChEMBL document CHEMBL5357051, “Quinoline, Indole, and Isogranatanine Alkaloids from Malayan Leuconotis eugeniifolia” (J Nat Prod, 2024).

Tests used:
[1] = tested on: HT-29; experiment: Cytotoxicity against human HT-29 cells assessed as inhibition of cell growth incubated for 72 hrs by MTT assay; format: functional, cell-based; conditions: HT-29, 72 h
[2] = tested on: HCT-116; experiment: Cytotoxicity against human HCT-116 cells assessed as inhibition of cell growth incubated for 72 hrs by MTT assay; format: functional, cell-based; conditions: HCT-116, 72 h

SMILES	IC50 [1] [µM]	IC50 [2] [µM]
CC[C@@]12CCC[N+]3([O-])CC[C@@]4(C(=Nc5ccccc54)[C@@H](O)C1)[C@@H]23 (stereo partly specified)	> 10	> 10
CC[C@]1(CCC(=O)OC)CCCNC1	> 10	> 10
CC[C@@]12CCO[C@@H]1N(CC[C@]1(O)C(=O)Nc3ccccc31)CC[C@H]2O	> 10	> 10
COC(=O)[C@H]1CO[C@H](C)[C@]2(O)C[N@+]3([O-])CCc4c([nH]c5ccccc45)[C@@H]3C[C@H]12	> 10	> 10
CC[C@@]12CCC[N@@+]3([O-])C[C@@H]4[C@@](O)(c5ccccc5N[C@]4(O)CC1)[C@@H]23	7.1	> 10
CC[C@]12CCCN[C@]13/C(=C\C(=O)O)c1ccccc1N3C(=O)CC2	> 10	> 10
CC[C@]12CCCN(C1)C(=O)CC2	7.2	> 10
COc1cccc2c1C(=O)c1c(O)c3c(c(O)c1C2=O)C[C@@](O)(C(=O)CO)C[C@@H]3O[C@H]1C[C@H](N)[C@H](O)[C@H](C)O1 [DOXORUBICIN]	0.06	0.04
